Laboratory results from paper PMC3774728, “Identification of the Plant Compound Geraniin as a Novel Hsp90 Inhibitor” (PLoS ONE, 2013).

How the values were obtained:
[1] = target: T1, recombinant Hsp90α (Homo sapiens, UniProt P07900); assay: Surface plasmon resonance binding to immobilized Hsp90α; conditions: SPR, immobilized Hsp90α, 25°C, single-site bimolecular model, 0.025-1 µM; read-out: KD
T1 construct: purchased Assay Designs (Ann Arbor, MI, USA)
Experimental: SPR analyses were carried out according to our previously published procedures, [23]. Briefly, SPR analyses were performed using a Biacore 3000 optical biosensor equipped with research−grade CM5 sensor chips (GE Healthcare). Using this platform, two separate recombinant Hsp90α surfaces, a BSA surface and one unmodified reference surface were prepared for simultaneous analyses. Proteins (100 µg mL^−1 in 10 mM CH3COONa, pH 5.0) were immobilized on individual sensor chip surfaces at a flow rate of 5 µL min^−1 using standard amine−coupling protocols to obtain densities of 8–12 kRU. Polyphenols, as well as 17-AAG and hardwickiic acid (HA), were dissolved in 100% DMSO to obtain 4 mM solutions, and diluted 1∶200 (v/v) in PBS (10 mM NaH2PO4, 150 mM NaCl, pH 7.4) to a final DMSO concentration of 0.5%. […] Binding experiments were performed at 25°C, using a flow rate of 50 µL min^−1, with 60 s monitoring of association and 300 s monitoring of dissociation. Simple interactions were suitably fitted to a single−site bimolecular interaction model (A+B = AB), yielding a single K D. Sensorgram elaborations were performed using the BIAevaluation software provided by GE Healthcare.
Putative interactions of different plant-derived phenolic compounds with Hsp90α were evaluated by a SPR-based approach.

[2] = test system: Jurkat cells; assay: MTT cell viability, Jurkat; assay type: cell-based, human; conditions: Homo sapiens, 24 h
Experimental: To ensure logarithmic growth, cells were subcultured every two days. As control cells, human peripheral blood mononuclear cells (PBMC) were isolated from buffy coats of healthy donors (kindly provided by the Blood Center of the Hospital of Battipaglia, Salerno, Italy) by using standard Ficoll−Hypaque gradients. […] Proliferation of PBMC was induced by phytohemagglutinin (PHA) (10 µg mL^−1). Tumor and PBMC cells were treated with different concentrations of geraniin or 17-AAG to evaluate their cytotoxic effects. Stock solutions of geraniin (50 mM in DMSO) and 17-AAG (10 mM in DMSO) were stored a −20°C in the dark and diluted just before addition to the sterile culture medium. In all the experiments, the final concentration of DMSO was 0.10% (v/v).
Jurkat (2×10^4/well) and HeLa (5000/well) cells were seeded in triplicate in 96 well−plates and incubated for 24 h in the absence or presence of different concentrations of geraniin (between 0,5 µM to 50 µM) or 17-AAG (between 0,5 nM to 10 µM).
The number of viable cells was determined by using a [3–4,5-dimethyldiazol-2-yl]-2,5-diphenyl tetrazolium bromide (MTT, Sigma-Aldrich) conversion assay, according to the method described by Mosmann. […] The absorbance was measured with a microplate reader (Titertek multiskan MCC7340, LabSystems, Vienna, VA, USA) equipped with a 620 nm filter. […]

[3] = test system: Jurkat cells; assay: Cell cycle and hypodiploidy by flow cytometry (PI), Jurkat; assay type: cell-based, human; conditions: 24 h, geraniin 0.7 µM, 17-AAG 10 µM
Experimental: Cell DNA content was measured by propidium iodide (PI) incorporation into permeabilized cells, as described by Nicoletti et al.. Briefly, the cells were harvested after geraniin or 17-AAG treatments were washed with cold PBS and incubated with a PI solution (0.1% sodium citrate, 0.1% Triton X-100 and 50 µg mL^−1 of prodium iodide, Sigma-Aldrich, 10 µg/ml Rnase A) for 30 min at room temperature. Data from 10.000 events per sample were collected by a FACScalibur flow cytometer (Becton Dickinson, San José, CA) and cellular debris was excluded from analysis by raising the forward scatter threshold. The percentage of cells in the sub G0/G1 phase, apoptotic fraction, was quantified using CellQuest software (Becton Dickinson). The distribution of cells in G0/G1, S, G2/M phases was determined using ModFit LT cell cycle analysis software (Becton Dickinson). Results were expressed as a mean ± SD of three experiments performed in triplicate.
Figure 6 Effects of geraniin and 17-AAG on cell cycle progression. Percentage of cell cycle stages was analyzed by flow cytometry, (A) PI-stained viable Jurkat cells treated with DMSO, 0.7 µM geraniin or 10 µM 17-AAG for 24 h.

[4] = test system: Hsp70, Hsp90 and Hsp90 client proteins in Jurkat cells; assay: Western blot of Hsp70 and Hsp90 client proteins, Jurkat; assay type: cell-based, human; conditions: 24 h
Experimental: (§1) Treated cells were harvested and disrupted by freeze−thawing in RIPA buffer (50 mM Hepes, 10 mM EDTA, 150 mM NaCl, 1% NP-40, 0.5% sodium deoxycholate, 0.1% SDS, pH 7.4), supplemented with protease inhibitors cocktail (Sigma-Aldrich). Cell debris was removed by centrifugation at 4°C and the supernatant protein concentration was determined, according to the Bio-Rad Protein assay (Biorad Laboratories, CA, USA). Total proteins (30 µg) were separated by SDS-PAGE under denatured reducing conditions. Separated proteins were then transferred to nitrocellulose membranes and blocked for 3 h with a solution containing 3% BSA in 50 mM Tris, 200 mM NaCl, 0.1% Tween 20, before incubation at 4°C overnight with the different primary antibodies (diluted 1∶1000) against specific proteins. After washing, the membranes were incubated with an appropriate peroxidase-conjugate secondary antibodies at room temperature (1 h). Immunoreactive protein bands were detected by enhanced chemiluminescence reagent (ECL, Rockford, USA), according to the manufacturer’s instructions. Quantitative densitometry analyses were performed using a Gel Doc 2000 system (Biorad Laboratories, CA, USA).
Figure 7 Effect of geraniin on Hsp90 client protein levels. Equal amounts (30 µg) of whole-cell lysates were separated on SDS-PAGE and client proteins were visualized by western blot analysis using specific antibodies. Actin was used as loading control. […] The blots shown are representative of three different experiments with similar results.

[5] = test system: Hsp70, Hsp90 and Hsp90 client proteins in HeLa cells; assay: Western blot of Hsp70 and Hsp90 client proteins, HeLa; assay type: cell-based, human; conditions: 24 h
Experimental: as §1
Figure 7 Effect of geraniin on Hsp90 client protein levels. Equal amounts (30 µg) of whole-cell lysates were separated on SDS-PAGE and client proteins were visualized by western blot analysis using specific antibodies. Actin was used as loading control. Total cellular proteins were extracted 24 h after treatment with geraniin (2.5 µM, 5 µM and 10 µM) in Jurkat cells (A) or geraniin (1 µM, 0.7 µM and 0.5 µM) in HeLa cells (B), ctrl = control cells treated with DMSO). The blots shown are representative of three different experiments with similar results.

[6] = IC50 and lower and higher concentrations

## O=C1O[C@H]2[C@@H]3OC(=O)c4cc(O)c(O)c(O)c4-c4c(cc(O)c(O)c4O)C(=O)OC[C@H]2O[C@@H](OC(=O)c2cc(O)c(O)c(O)c2)[C@@H]3OC(=O)c2cc(O)c(O)c3c2[C@@H]2C1=CC(=O)[C@](O)(O3)C2(O)O [Compound 54, geraniin]
[1]
  Kd: 415 ± 27 nM
[2]
  IC50: 760 ± 100 nM
[3]
  cell cycle arrest: G2/M arrest
  percentage of cells with hypodiploid nuclei: 9.75±1.02%
[4]; 1 µM geraniin
  Hsp70 expression increase: 3.5±0.12 fold
[4]
  level of Akt: unaffected
[4]; [6]
  level of the client proteins c-Raf, pAkt and EGFR: dose-dependent decrease
[5]; 10 µM geraniin
  Hsp70 expression increase: 2.7±0.09 fold
[5]
  level of Akt: unaffected
[5]; [6]
  level of the client proteins c-Raf, pAkt and EGFR: dose-dependent decrease
